Assay results reported in publication PMC11233931, “Remodeling tumor‐associated macrophage for anti‐cancer effects by rational design of irreversible inhibition of mitogen‐activated protein kinase‐activated protein kinase 2” (MedComm, 2024).

Assays:
Assay in all cases: Eurofins kinase selectivity profile against 380 other human recombinant kinases (Table S2)
Assay type in all cases: biochemical
[1] = target: T1, 380 human recombinant protein kinases (Homo sapiens, UniProt O94806); details: PKD3(h), read-out: Inhibition rate
T1 construct: purchased Eurofins (Celle Lévescault)
T1 sequence (O94806 1-890): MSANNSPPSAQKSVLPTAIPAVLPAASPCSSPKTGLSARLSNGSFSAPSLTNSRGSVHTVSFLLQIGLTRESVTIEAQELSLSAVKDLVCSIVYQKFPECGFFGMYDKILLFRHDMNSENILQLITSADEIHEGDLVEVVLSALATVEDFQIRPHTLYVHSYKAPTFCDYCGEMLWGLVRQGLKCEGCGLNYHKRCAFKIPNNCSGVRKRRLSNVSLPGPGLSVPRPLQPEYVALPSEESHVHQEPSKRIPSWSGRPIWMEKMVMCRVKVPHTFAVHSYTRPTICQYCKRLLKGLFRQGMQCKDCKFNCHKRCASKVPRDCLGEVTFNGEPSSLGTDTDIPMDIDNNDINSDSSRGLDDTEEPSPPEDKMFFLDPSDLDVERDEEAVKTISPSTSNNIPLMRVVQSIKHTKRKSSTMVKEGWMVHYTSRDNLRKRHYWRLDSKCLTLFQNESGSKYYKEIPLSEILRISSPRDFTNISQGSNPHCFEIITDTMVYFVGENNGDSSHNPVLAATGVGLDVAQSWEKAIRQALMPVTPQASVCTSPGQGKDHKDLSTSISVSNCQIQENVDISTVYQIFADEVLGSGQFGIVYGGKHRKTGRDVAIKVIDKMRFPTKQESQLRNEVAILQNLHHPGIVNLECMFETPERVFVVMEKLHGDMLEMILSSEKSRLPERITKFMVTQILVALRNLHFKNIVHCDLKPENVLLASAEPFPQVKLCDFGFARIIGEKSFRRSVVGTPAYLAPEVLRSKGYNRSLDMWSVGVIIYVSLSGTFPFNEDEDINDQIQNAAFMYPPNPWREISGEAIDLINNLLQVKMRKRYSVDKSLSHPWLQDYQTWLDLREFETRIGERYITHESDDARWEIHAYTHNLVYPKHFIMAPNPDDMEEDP
Method in brief: (§1)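 The inhibitor was sent to a contract lab and screened at various concentrations against 380 human recombinant protein kinases. This served as a counter-screen for MK2 specificity.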

[2] = target: T2, 380 human recombinant protein kinases (Homo sapiens, UniProt O75747); details: PI3KC2γ(h), read-out: Inhibition rate (%)
T2 construct: purchased Eurofins (Celle Lévescault)
T2 sequence (O75747 1-1486): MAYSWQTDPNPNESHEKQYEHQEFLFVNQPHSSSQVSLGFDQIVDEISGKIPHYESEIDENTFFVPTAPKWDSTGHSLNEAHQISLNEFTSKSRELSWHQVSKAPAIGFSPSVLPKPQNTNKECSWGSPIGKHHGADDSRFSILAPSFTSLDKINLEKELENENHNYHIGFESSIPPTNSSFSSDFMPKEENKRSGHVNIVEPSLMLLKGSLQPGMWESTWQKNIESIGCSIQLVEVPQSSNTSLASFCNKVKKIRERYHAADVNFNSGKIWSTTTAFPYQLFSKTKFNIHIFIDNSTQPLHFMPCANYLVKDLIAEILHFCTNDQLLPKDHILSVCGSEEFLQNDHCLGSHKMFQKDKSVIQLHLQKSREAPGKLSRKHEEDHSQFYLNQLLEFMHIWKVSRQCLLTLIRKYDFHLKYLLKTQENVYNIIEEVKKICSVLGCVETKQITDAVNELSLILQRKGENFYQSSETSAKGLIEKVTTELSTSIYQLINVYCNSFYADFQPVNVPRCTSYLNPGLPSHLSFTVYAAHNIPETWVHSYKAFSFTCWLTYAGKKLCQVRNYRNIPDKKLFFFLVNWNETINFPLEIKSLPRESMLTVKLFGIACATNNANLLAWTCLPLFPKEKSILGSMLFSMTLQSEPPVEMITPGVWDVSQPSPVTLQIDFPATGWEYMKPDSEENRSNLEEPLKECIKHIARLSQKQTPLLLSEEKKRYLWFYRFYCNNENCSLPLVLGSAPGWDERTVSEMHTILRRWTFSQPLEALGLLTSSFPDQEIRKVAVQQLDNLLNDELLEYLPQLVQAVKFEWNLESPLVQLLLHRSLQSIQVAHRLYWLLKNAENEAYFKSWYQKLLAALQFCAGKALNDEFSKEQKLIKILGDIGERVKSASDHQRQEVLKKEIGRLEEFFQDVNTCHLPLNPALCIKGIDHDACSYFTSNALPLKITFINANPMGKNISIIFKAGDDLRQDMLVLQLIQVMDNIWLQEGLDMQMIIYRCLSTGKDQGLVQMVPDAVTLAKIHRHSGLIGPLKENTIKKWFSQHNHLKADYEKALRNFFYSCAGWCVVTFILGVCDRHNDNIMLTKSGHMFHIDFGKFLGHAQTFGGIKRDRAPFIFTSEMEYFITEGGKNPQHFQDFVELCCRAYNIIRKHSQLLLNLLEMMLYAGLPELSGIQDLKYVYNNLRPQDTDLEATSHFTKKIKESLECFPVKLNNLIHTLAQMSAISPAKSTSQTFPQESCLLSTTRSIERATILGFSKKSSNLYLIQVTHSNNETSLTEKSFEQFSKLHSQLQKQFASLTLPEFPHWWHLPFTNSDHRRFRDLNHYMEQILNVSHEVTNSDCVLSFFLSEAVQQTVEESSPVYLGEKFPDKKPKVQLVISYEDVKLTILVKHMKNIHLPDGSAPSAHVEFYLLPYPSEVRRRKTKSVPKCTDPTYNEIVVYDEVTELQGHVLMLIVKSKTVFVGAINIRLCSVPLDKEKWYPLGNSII
Method in brief: as §1

[3] = target: T3, 380 human recombinant protein kinases (Homo sapiens, UniProt P00519); details: Abl(h), read-out: Inhibition rate
T3 construct: purchased Eurofins (Celle Lévescault)
Method in brief: as §1

T3 sequence (P00519 whole entry): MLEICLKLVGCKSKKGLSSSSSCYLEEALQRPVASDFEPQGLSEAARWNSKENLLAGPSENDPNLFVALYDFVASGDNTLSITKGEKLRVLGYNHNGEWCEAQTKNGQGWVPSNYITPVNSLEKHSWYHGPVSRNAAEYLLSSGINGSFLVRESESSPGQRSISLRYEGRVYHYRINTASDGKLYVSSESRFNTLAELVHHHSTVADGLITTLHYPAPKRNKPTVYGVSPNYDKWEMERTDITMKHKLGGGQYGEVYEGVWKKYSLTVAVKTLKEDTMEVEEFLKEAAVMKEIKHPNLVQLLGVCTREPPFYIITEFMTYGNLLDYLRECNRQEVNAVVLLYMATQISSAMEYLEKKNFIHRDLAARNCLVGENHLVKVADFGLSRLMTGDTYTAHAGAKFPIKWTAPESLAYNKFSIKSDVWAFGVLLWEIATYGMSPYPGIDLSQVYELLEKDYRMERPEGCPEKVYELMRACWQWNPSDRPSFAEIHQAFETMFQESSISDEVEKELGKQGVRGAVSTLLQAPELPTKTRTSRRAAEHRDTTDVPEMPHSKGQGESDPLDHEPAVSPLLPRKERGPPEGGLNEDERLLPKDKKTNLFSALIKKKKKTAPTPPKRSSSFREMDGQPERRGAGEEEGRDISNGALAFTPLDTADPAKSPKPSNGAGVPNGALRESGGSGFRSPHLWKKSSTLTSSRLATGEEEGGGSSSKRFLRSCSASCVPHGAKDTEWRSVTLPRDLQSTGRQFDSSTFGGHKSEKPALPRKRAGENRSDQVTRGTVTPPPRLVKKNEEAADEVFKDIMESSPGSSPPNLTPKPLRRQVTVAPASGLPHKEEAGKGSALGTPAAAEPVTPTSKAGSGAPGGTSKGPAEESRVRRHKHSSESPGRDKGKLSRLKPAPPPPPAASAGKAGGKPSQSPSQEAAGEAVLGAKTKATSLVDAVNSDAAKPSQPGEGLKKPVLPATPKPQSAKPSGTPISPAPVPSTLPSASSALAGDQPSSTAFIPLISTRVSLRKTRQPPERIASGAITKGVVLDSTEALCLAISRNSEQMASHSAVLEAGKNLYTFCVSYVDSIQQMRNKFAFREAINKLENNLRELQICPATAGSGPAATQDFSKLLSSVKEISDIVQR

`C=CC(=O)Nc1cc(-c2cc(-c3cc4c([nH]3)CCNC4=O)ccn2)ccc1OC(F)(F)F` [compound 11] showed an inhibition at 0.01 µM ([1]; 10 nM) of 4%, an inhibition at 0.1 µM ([1]; 100 nM) of 15% and an inhibition at 1 µM ([1]; 1000 nM) of 55%. For the same molecule, the inhibition at 0.01 µM ([2]; 10 nM) was 6%, the inhibition at 0.1 µM ([2]; 100 nM) was 13% and the inhibition at 1 µM ([2]; 1000 nM) was 12%. The inhibition at 0.01 µM ([3]; 10 nM) was -9%, the inhibition at 0.1 µM ([3]; 100 nM) was -5% and the inhibition at 1 µM ([3]; 1000 nM) was 9%.
